Measurements from US9167821B2 (priority 2009, dated 2015).
Counter-ions that a name gives are not always drawn.

Test: physchem
Text: The determination is effected in the acidic range at pH 2.3 using 0.1% aqueous phosphoric acid and acetonitrile as eluents; linear gradient from 10% acetonitrile to 95% acetonitrile. • ^[b] The LC-MS determination in the acidic range is effected at pH 2.7 using 0.1% aqueous formic acid and acetonitrile (contains 0.1% formic acid) as eluents; linear gradient from 10% acetonitrile to 95% acetonitrile. • ^[c] The LC-MS determination in the neutral range is effected at pH 7.8 using 0.001 molar aqueous ammonium hydrogencarbonate solution and acetonitrile as eluents; linear gradient from 10% acetonitrile to 95% acetonitrile.
The calibration is effected with unbranched alkan-2-ones (having 3 to 16 carbon atoms) with known log P values (determination of the log P values using the retention times by linear interpolation between two successive alkanones).

Compound	chromatographic logP (pH 2.7, log P (HCOOH))	chromatographic logP (pH 2.7, logp [b])	also measured
O=C(Cn1nc(C(F)F)cc1C(F)F)N1CCC(c2nc(C3=NOC(c4c(O)cccc4Cl)C3)cs2)CC1 (stereo not shown) [I-54, 2-[3,5-Bis(difluoromethyl)-1H-pyrazol-1-yl]-1-(4-{4-[5-(2-chloro-6-hydroxyphenyl)-4,5-dihydro-1,2-oxazol-3-yl]-1,3-thiazol-2-yl}piperidin-1-yl)ethanone]	2.94	2.94	–
O=Cc1ccccc1C1CC(c2csc(C3CCNCC3)n2)=NO1 (stereo not shown) [XII-3, 2-{3-[2-(Piperidin-4-yl)-1,3-thiazol-4-yl]-4,5-dihydro-1,2-oxazol-5-yl}benzaldehyde hydrochloride]	0.76	–	–
C=C(C)COc1ccccc1C1CC(c2csc(C3CCN(C(=O)Cn4nc(C(F)F)cc4C(F)F)CC3)n2)=NO1 (stereo not shown) [I-18, 2-[3,5-bis(difluoromethyl)-1H-pyrazol-1-yl]-1-{4-[4-(5-{2-[(2-methylprop-2-en-1-yl)oxy]phenyl}-4,5-dihydro-1,2-oxazol-3-yl)-1,3-thiazol-2-yl]piperidin-1-yl}ethanone]	–	3.96	chromatographic logP (pH 7.8, logp [c]): 3.92
COC(=O)c1ccccc1C1CC(c2csc(C3CCN(C(=O)Cn4nc(C(F)F)cc4C(F)F)CC3)n2)=NO1 (stereo not shown) [I-43, Methyl 2-{3-[2-(1-{[3,5-bis(difluoromethyl)-1H-pyrazol-1-yl]acetyl}piperidin-4-yl)-1,3-thiazol-4-yl]-4,5-dihydro-1,2-oxazol-5-yl}benzoate]	–	3.32	–
COCCOc1cccc(C2CC(c3csc(C4CCN(C(=O)Cn5nc(C(F)F)cc5C(F)F)CC4)n3)=NO2)c1 (stereo not shown) [I-28, 2-[3,5-Bis(difluoromethyl)-1H-pyrazol-1-yl]-1-[4-(4-{5-[3-(2-methoxyethoxy)phenyl]-4,5-dihydro-1,2-oxazol-3-yl}-1,3-thiazol-2-yl)piperidin-1-yl]ethanone]	–	3.03	chromatographic logP (pH 7.8, logp [c]): 3.04
CC(C)(C)OC(=O)N1CCC(c2nc(-c3cc(-c4ccccc4C=O)on3)cs2)CC1 [X-b-1, tert-butyl 4-{4-[5-(2-formylphenyl)-1,2-oxazol-3-yl]-1,3-thiazol-2-yl}piperidine-1-carboxylate]	4.1	–	–
CC(C)(C)OC(=O)N1CCC(c2nc(C3=NOC(c4ccccc4NS(C)(=O)=O)C3)cs2)CC1 (stereo not shown) [X-a-4, tert-Butyl 4-[4-(5-{2-[(methylsulphonyl)amino]phenyl}-4,5-dihydro-1,2-oxazol-3-yl)-1,3-thiazol-2-yl]piperidine-1-carboxylate]	3	–	–
C#Cc1ccccc1C1CC(c2csc(C3CCN(C(=O)Cn4nc(C(F)F)cc4C(F)F)CC3)n2)=NO1 (stereo not shown) [I-38, 2-[3,5-Bis(difluoromethyl)-1H-pyrazol-1-yl]-1-(4-{4-[5-(2-ethynylphenyl)-4,5-dihydro-1,2-oxazol-3-yl]-1,3-thiazol-2-yl}piperidin-1-yl)ethanone]	–	3.36	–
CC(C)(C)OC(=O)N1CCC(c2nc(C3=NOC(c4ccccc4C=O)C3)cs2)CC1 (stereo not shown) [X-a-3, tert-Butyl 4-{4-[5-(2-formylphenyl)-4,5-dihydro-1,2-oxazol-3-yl]-1,3-thiazol-2-yl}piperidine-1-carboxylate]	3.76	–	–
CC(C)(C)OC(=O)N1CCC(F)(c2nc(C3=NOC(c4ccccc4)C3)cs2)CC1 (stereo not shown) [X-a-1, tert-Butyl 4-fluoro-4-[4-(5-phenyl-4,5-dihydro-1,2-oxazol-3-yl)-1,3-thiazol-2-yl]piperidine-1-carboxylate]	4.28	–	–
COCCOCc1ccccc1C1CC(c2csc(C3CCN(C(=O)Cn4nc(C(F)F)cc4C(F)F)CC3)n2)=NO1 (stereo not shown) [I-11, 2-[3,5-Bis(difluoromethyl)-1H-pyrazol-1-yl]-1-{4-[4-(5-{2-[(2-methoxyethoxy)methyl]phenyl}-4,5-dihydro-1,2-oxazol-3-yl)-1,3-thiazol-2-yl]piperidin-1-yl}ethanone]	–	3.21	–
CC(C)(C)OC(=O)N1CCC(c2nc(C3=NOC(c4ccccc4OCC4CCCCC4)C3)cs2)CC1 (stereo not shown) [X-a-7, tert-butyl 4-(4-{5-[2-(cyclohexylmethoxy)phenyl]-4,5-dihydro-1,2-oxazol-3-yl}-1,3-thiazol-2-yl)piperidine-1-carboxylate]	–	–	chromatographic logP (pH 2.7, log P (pH2.7)): 6.3
O=Cc1cccc(F)c1C1CC(c2csc(C3CCN(C(=O)Cn4nc(C(F)F)cc4C(F)F)CC3)n2)=NO1 (stereo not shown) [I-17, 2-{3-[2-(1-{[3,5-Bis(difluoromethyl)-1H-pyrazol-1-yl]acetyl}piperidin-4-yl)-1,3-thiazol-4-yl]-4,5-dihydro-1,2-oxazol-5-yl}-3-fluorobenzaldehyde]	–	2.92	chromatographic logP (pH 7.8, logp [c]): 2.82
COC(=O)c1ccccc1C1CC(c2nc(C3CCN(C(=O)Cn4nc(C(F)F)cc4C(F)F)CC3)sc2Cl)=NO1 (stereo not shown) [I-46, methyl 2-{3-[2-(1-{[3,5-bis(difluoromethyl)-1H-pyrazol-1-yl]acetyl}piperidin-4-yl)-5-chloro-1,3-thiazol-4-yl]-4,5-dihydro-1,2-oxazol-5-yl}benzoate]	–	3.98	–
CS(=O)(=O)Nc1ccccc1C1CC(c2csc(C3CCNCC3)n2)=NO1 (stereo not shown) [XII-4, 4-[4-(5-{2-[(Methylsulphonyl)amino]phenyl}-4,5-dihydro-1,2-oxazol-3-yl)-1,3-thiazol-2-yl]piperidinium chloride]	0.72	–	–
FC1(c2nc(C3=NOC(c4ccccc4)C3)cs2)CCNCC1 (stereo not shown) [XII-1, 4-fluoro-4-[4-(5-phenyl-4,5-dihydro-1,2-oxazol-3-yl)-1,3-thiazol-2-yl]piperidinium chloride]	1.17	–	–
c1ccc(C2CC(c3csc(C4CCNCC4)n3)=NO2)c(OCC2CCCCC2)c1 (stereo not shown) [XII-7, 4-(4-{5-[2-(Cyclohexylmethoxy)phenyl]-4,5-dihydro-1,2-oxazol-3-yl}-1,3-thiazol-2-yl)piperidinium chloride]	–	–	chromatographic logP (pH 2.7, log P (pH2.7)): 1.9
O=C(Cn1nc(C(F)F)cc1C(F)F)N1CCC(c2nc(C3=NOC(c4ccccc4OCC4CCCCC4)C3)cs2)CC1 (stereo not shown) [I-24, 2-[3,5-Bis(difluoromethyl)-1H-pyrazol-1-yl]-1-[4-(4-{5-[2-(cyclohexylmethoxy)phenyl]-4,5-dihydro-1,2-oxazol-3-yl}-1,3-thiazol-2-yl)piperidin-1-yl]ethanone]	–	–	chromatographic logP (pH 2.3): 4.9; chromatographic logP (pH 7.8): 4.9
CC(C)(C)OC(=O)N1CCC(c2nc(C3=NOC(c4c(F)cccc4C=O)C3)cs2)CC1 (stereo not shown) [X-a-13, tert-Butyl 4-{4-[5-(2-fluoro-6-formylphenyl)-4,5-dihydro-1,2-oxazol-3-yl]-1,3-thiazol-2-yl}piperidine-1-carboxylate]	3.62	–	–
O=[N+]([O-])c1ccccc1C1CC(c2csc(C3CCNCC3)n2)=NO1 (stereo not shown) [XII-6, 4-{4-[5-(2-Nitrophenyl)-4,5-dihydro-1,2-oxazol-3-yl]-1,3-thiazol-2-yl}piperidinium chloride]	–	–	chromatographic logP (pH 2.7, log P (pH2.7)): 1.09
CC(C)(C)OC(=O)N1CCC(c2nc(C3=NOC(c4ccccc4O)C3)cs2)CC1 (stereo not shown) [X-a-5, tert-Butyl 4-{4-[5-(2-hydroxyphenyl)-4,5-dihydro-1,2-oxazol-3-yl]-1,3-thiazol-2-yl}piperidine-1-carboxylate]	–	–	chromatographic logP (pH 2.7, log P (pH2.7)): 3.22
COCCOc1cccc(Cl)c1C1CC(c2csc(C3CCN(C(=O)Cn4nc(C(F)F)cc4C(F)F)CC3)n2)=NO1 (stereo not shown) [I-50, 2-[3,5-bis(difluoromethyl)-1H-pyrazol-1-yl]-1-[4-(4-{5-[2-chloro-6-(2-methoxyethoxy)phenyl]-4,5-dihydro-1,2-oxazol-3-yl}-1,3-thiazol-2-yl)piperidin-1-yl]ethanone]	–	3.36	–
CS(=O)(=O)Nc1ccccc1C1CC(c2csc(C3CCN(C(=O)Cn4nc(C(F)F)cc4C(F)F)CC3)n2)=NO1 (stereo not shown) [I-37, N-(2-{3-[2-(1-{[3,5-Bis(difluoromethyl)-1H-pyrazol-1-yl]acetyl}piperidin-4-yl)-1,3-thiazol-4-yl]-4,5-dihydro-1,2-oxazol-5-yl}phenyl)methanesulphonamide]	–	2.51	–
C#CCOc1cccc(Cl)c1C1CC(c2csc(C3CCN(C(=O)Cn4nc(C(F)F)cc4C(F)F)CC3)n2)=NO1 (stereo not shown) [I-49, 2-[3,5-bis(difluoromethyl)-1H-pyrazol-1-yl]-1-[4-(4-{5-[2-chloro-6-(prop-2-yn-1-yloxy)phenyl]-4,5-dihydro-1,2-oxazol-3-yl}-1,3-thiazol-2-yl)piperidin-1-yl]ethanone]	–	3.5	chromatographic logP (pH 7.8, logp [c]): 3.34
Oc1ccccc1C1CC(c2csc(C3CCNCC3)n2)=NO1 (stereo not shown) [XII-5, 4-{4-[5-(2-Hydroxyphenyl)-4,5-dihydro-1,2-oxazol-3-yl]-1,3-thiazol-2-yl}piperidinium chloride]	–	–	chromatographic logP (pH 2.7, log P (pH2.7)): 0.69
CC(C)(C)OC(=O)N1CCC(c2nc(C3=NOC(c4ccccc4C(=O)O)C3)cs2)CC1 (stereo not shown) [X-a-9, 2-(3-{2-[1-(tert-butoxycarbonyl)piperidin-4-yl]-1,3-thiazol-4-yl}-4,5-dihydro-1,2-oxazol-5-yl)benzoic acid]	3.18	–	–
C=CCOc1cccc(Cl)c1C1CC(c2csc(C3CCN(C(=O)Cn4nc(C(F)F)cc4C(F)F)CC3)n2)=NO1 (stereo not shown) [I-51, 1-[4-(4-{5-[2-(Allyloxy)-6-chlorophenyl]-4,5-dihydro-1,2-oxazol-3-yl}-1,3-thiazol-2-yl)piperidin-1-yl]-2-[3,5-bis(difluoromethyl)-1H-pyrazol-1-yl]ethanone]	–	3.82	chromatographic logP (pH 7.8, logp [c]): 3.71
O=C(Cn1nc(C(F)F)cc1C(F)F)N1CCC(c2nc(C3=NOC(c4ccccc4CO)C3)cs2)CC1 (stereo not shown) [I-45, 2-[3,5-Bis(difluoromethyl)-1H-pyrazol-1-yl]-1-[4-(4-{5-[2-(hydroxymethyl)phenyl]-4,5-dihydro-1,2-oxazol-3-yl}-1,3-thiazol-2-yl)piperidin-1-yl]ethanone]	–	2.45	–
O=Cc1ccccc1-c1cc(-c2csc(C3CCN(C(=O)Cn4nc(C(F)F)cc4C(F)F)CC3)n2)no1 [I-31, 2-{3-[2-(1-{[3,5-Bis(difluoromethyl)-1H-pyrazol-1-yl]acetyl}piperidin-4-yl)-1,3-thiazol-4-yl]-1,2-oxazol-5-yl}benzaldehyde]	–	3.25	–
O=C(O)c1ccccc1C1CC(c2csc(C3CCN(C(=O)Cn4nc(C(F)F)cc4C(F)F)CC3)n2)=NO1 (stereo not shown) [2-{3-[2-(1-{[3,5-Bis(difluoromethyl)-1H-pyrazol-1-yl]acetyl}piperidin-4-yl)-1,3-thiazol-4-yl]-4,5-dihydro-1,2-oxazol-5-yl}benzoic acid]	2.63	–	–
